This note sets out measurements from paper PMC10580383, “Development of Melanocortin 4 Receptor Agonists by Exploiting Animal-Derived Macrocyclic, Disulfide-Rich Peptide Scaffolds” (ACS Pharmacology & Translational Science, 2023).

Each structure is given as a SMILES string. Where a SMILES comes first, the peptide text is derived from it. Bridges are numbered along the chain shown (N, C = ends). [ ]: non-standard residue; d: D form.

The term EC50 denotes the concentration that produces a half-maximal response. A lower EC50 goes with higher potency in that assay. The Emax is the size of the effect at its maximum, as opposed to the concentration needed.

In experiment [1] the target is T1, mouse melanocortin 4 receptor (MC4R) (Mus musculus, UniProt P56450).
T1 construct: expressed in transfected cells; host or cells: HEK293 / HEK293T, transient transfection
T1 sequence (P56450 whole entry): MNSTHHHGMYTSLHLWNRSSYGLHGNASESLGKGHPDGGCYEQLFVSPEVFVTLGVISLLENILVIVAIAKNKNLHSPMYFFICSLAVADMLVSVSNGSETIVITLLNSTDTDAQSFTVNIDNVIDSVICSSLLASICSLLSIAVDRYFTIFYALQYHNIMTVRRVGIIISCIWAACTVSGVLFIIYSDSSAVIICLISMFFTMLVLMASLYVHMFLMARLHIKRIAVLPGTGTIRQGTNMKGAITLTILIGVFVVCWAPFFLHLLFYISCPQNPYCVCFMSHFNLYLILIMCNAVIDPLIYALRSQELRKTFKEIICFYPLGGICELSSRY
In words: cAMP second messenger quantification assay (Cisbio HTRF cAMP Gs kit). In kind it is cell-based. The conditions noted are these: for Emax: HEK293, read-out: efficacy cAMP Emax ± SD. As to the method: Figure 3 Functional cAMP assay of synthesized peptide analogues targeting MC4R. The accumulation of adenylyl cyclase-catalyzed cAMP of (A) tachylplesin-1-like peptides (Ta1LPs, green), (B) protegrin-4-like peptides ([…], pink), (C) arenicin-3-like peptides (Ar3LPs, orange), and (D) gomesin-like peptides (GoLPs, blue) was measured in HEK293 cells transiently expressing mouse melanocortin 4 receptor (MC4R). […] Data are from three independent experiments and are shown as mean ± SEM.
Assays were performed on cells transiently expressing mouse MC4R-EGFP. BamHI and SacI restriction sites were used to clone mouse MC4R N-terminally into a pEGFP-N1 vector. Peptide ligands were assayed for […] in a 384-well format and triplicate according to the Cisbio protocol. Briefly, 5 μL containing 10,000 cells per well was incubated with 5 μL of peptide solutions prepared 2× in 1× stimulation buffer. Following an incubation of peptide ligands at 37 °C for 30 min, d2-labeled cAMP and cryptate-labeled antibody (5 μL of each) were added to the mixture and further incubated for at least 1 h at room temperature. Subsequently, cAMP levels were quantified on a Flexstation 3 (Molecular Devices, San Jose, USA) using homogeneous time-resolved fluorescence resonance energy transfer and the ratio 665/620 nm. Samples were measured in technical triplicates.
Data analysis was performed with GraphPad Prism (GraphPad Software, San Diego). The potency (EC50) and maximum efficacy (Emax) values of peptide ligands were derived from functional data fitted to three- or four-parameter nonlinear regression curves constrained to a bottom of zero.
For orientation: Time-resolved FRET reads energy transfer from a long-lived donor to a nearby acceptor.

The target in experiment [2] is T2, human MC4R (Homo sapiens, UniProt P32245).
T2 construct: expressed in transfected cells; host or cells: HEK293T, transient co-transfection
T2 sequence (P32245 whole entry): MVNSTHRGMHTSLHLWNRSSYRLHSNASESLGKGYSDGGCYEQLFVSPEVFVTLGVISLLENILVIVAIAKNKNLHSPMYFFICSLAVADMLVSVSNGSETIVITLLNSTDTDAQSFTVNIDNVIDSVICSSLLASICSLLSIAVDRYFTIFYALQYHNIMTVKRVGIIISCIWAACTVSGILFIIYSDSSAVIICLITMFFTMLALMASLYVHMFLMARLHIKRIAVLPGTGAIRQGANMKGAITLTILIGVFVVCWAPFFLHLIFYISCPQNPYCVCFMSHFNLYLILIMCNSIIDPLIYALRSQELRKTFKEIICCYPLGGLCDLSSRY
In words: nanoluciferase complementation assay MC4R-LgBit / Gαs-SmBit (Gαs coupling). In kind it is cell-based. The conditions noted are these: for increase in efficacy in recruiting Gαs compared to α-MSH: nanoluciferase complementation MC4R-LgBit/Gαs-SmBit, normalized to α-MSH maximum response. As to the method:
We proceeded with more detailed pharmacological characterization of Pr4LP1 and Ar3LP1 to gain more insights into the signaling pathways that follow MC4R stimulation.
Figure 5 Biosensor characterization of Pr4LP1 and Ar3LP1 peptides acting as agonists at MC4R. […] Data are represented as means ± SEM for all experimental replicates and were performed in triplicate from n ≥ 3 independent experiments.
The plasmid constructs used to show interactions between human MC4R and Gαs protein and/or β-arrestin-2 were designed with fused SmBit and LgBit proteins, that upon complementation form the fully functional nanoluciferase enzyme that can produce detectable bioluminescence upon addition of the substrate furimazine. For the Gαs coupling, we used a LgBit fused at the C-terminus of MC4R (MC4R-LgBit) and cotransfected with the Gαs-SmBit construct. For the β-arrestin-2 recruitment assay, we used a C-terminally fused MC4R-SmBit and the β-arrestin-2-LgBit constructs. The cotransfection ratio was 1:10 (Gαs/β-arrestin-2/receptor). Cells were harvested, washed, and resuspended in fresh medium 24 h post-transfection. Approximately 5 × 10^4 cells/well were distributed in precoated 96-well white plates and allowed to adhere overnight. On an experimental day, cells were washed with HBSS and maintained in HBSS (80 μL/well). The furimazine substrate for the luciferase (50×) stock was diluted at 1× with HBSS, and 10 μL/well was added to all assay wells and incubated for 12 min before addition of ligands. Ligand dilutions were prepared at 10× final concentration in HBSS, and 10 μL/well was added to the assay wells. Plates were read 5 min following ligand addition using a ClarioStar equipped with a nanoluc-compatible optic module (BMG Labtech). […] EC50/Emax values were calculated via a nonlinear regression analysis.

As for `CC(C)C[C@H](NC(=O)[C@H](CCCNC(=N)N)NC(=O)CNC(=O)CNC(=O)[C@@H](N)CCCNC(=N)N)C(=O)N[C@H]1CSSC[C@@H](C(=O)N[C@H](C(=O)NCC(=O)N[C@@H](CCCNC(=N)N)C(N)=O)C(C)C)NC(=O)[C@H](Cc2ccccc2)NC(=O)[C@@H]2CSSC[C@H](NC(=O)[C@H](Cc3ccc(O)cc3)NC1=O)C(=O)N1CCC[C@H]1C(=O)N[C@@H](Cc1c[nH]cn1)C(=O)N[C@H](Cc1ccccc1)C(=O)N[C@@H](Cc1c[nH]cn1)C(=O)N[C@@H](Cc1c[nH]c3ccccc13)C(=O)N2` [Pr4LP1] (H-RGGRLCYCPH[dF]HWCFCVGR-NH2; disulfide 6-16, 8-14), in experiment [1], a half-maximal effect (EC50) was put at 3.98 nM and the Emax was found to be 96 ± 3%. Further, in experiment [2], the EC50 was 0.193 nM and the “increase in efficacy in recruiting Gαs compared to α-MSH” value is 8.8%.

In the case of `CC(C)[C@@H]1NC(=O)[C@H](Cc2ccc(O)cc2)NC(=O)[C@H](Cc2c[nH]c3ccccc23)NC(=O)[C@@H](NC(=O)[C@H](Cc2ccccc2)NC(=O)CN)CSSC[C@@H](C(=O)N[C@@H](CC(N)=O)C(N)=O)NC(=O)[C@H](CCCNC(=N)N)NC(=O)[C@H](CCCNC(=N)N)NC(=O)[C@H](Cc2ccc(O)cc2)NC(=O)[C@@H]2CSSC[C@H](NC1=O)C(=O)N1CCC[C@H]1C(=O)N[C@@H](Cc1c[nH]cn1)C(=O)N[C@H](Cc1ccccc1)C(=O)N[C@@H](Cc1c[nH]cn1)C(=O)N[C@@H](Cc1c[nH]c3ccccc13)C(=O)N2` [Ar3LP1] (H-GFCWYVCPH[dF]HWCYRRCN-NH2; disulfide 3-17, 7-13), in experiment [1], the EC50 was 1 nM and the Emax was 98 ± 4%. In experiment [2], it took 0.702 nM to reach a half-maximal effect (EC50) and the “increase in efficacy in recruiting Gαs compared to α-MSH” value is listed as 25%.
